Test results reported in ChEMBL document CHEMBL1131600 (J Med Chem, 1998).
pIC50: −log10 of the molar value.

How the values were obtained:
Type in all cases: functional, organism-based
Plasmodium falciparum [1] = assay: In vitro antimalarial activity against chloroquine-sensitive Plasmodium falciparum NF54 in C4alpha-alkylated trioxanes
Plasmodium falciparum [2] = assay: In vitro antimalarial activity against chloroquine-sensitive Plasmodium falciparum NF54 in C4beta-stannylmethyl trioxanes
Plasmodium falciparum [3] = assay: In vitro antimalarial activity against chloroquine-sensitive Plasmodium falciparum NF54

Compound | pIC50 (Plasmodium falciparum [1]) | pIC50 (Plasmodium falciparum [2]; Plasmodium falciparum) | pIC50 (Plasmodium falciparum [3]; Plasmodium falciparum) | further results
CO[C@H]1O[C@@]2(C)OOC13[C@H](CCO)CCC[C@@H]3CC2C (some centres undefined) | 5.89 | 8.11 |  | 
CO[C@H]1O[C@@]2(C)OOC13CCCC[C@@H]3CC2CO (some centres undefined) | < 5.60 | 6.64 |  | 
CO[C@H]1O[C@]2(C)CC[C@H]3CCC[C@@H](CCO)C31OO2 |  |  | 6.92 | 
CO[C@H]1O[C@@]2(C)OOC13CCCC[C@@H]3CC2c1ccccc1 (some centres undefined) | < 5.60 | 5.70 |  | 
CO[C@H]1O[C@@]2(C)OOC13CCCC[C@@H]3C[C@@H]2Cc1ccc(CO)cc1 |  |  | 6.22 | 
CO[C@H]1O[C@]2(C)CC[C@H]3CCC[C@@H](CCOCc4ccc(F)cc4)C31OO2 |  |  | 7.51 | 
CO[C@H]1O[C@@]2(C)OOC13[C@H](CCOP(=O)(Oc1ccccc1)Oc1ccccc1)CCC[C@@H]3C[C@@H]2C |  |  | 8.16 | 
((6R,9S,12S)-12-Methoxy-9-methyl-10,11,13-trioxa-tricyclo[7.2.2.01,6]tridec-8-ylmethyl)-trimethyl-stannane |  |  |  | pIC50 (Plasmodium falciparum [3]): < 5.60
CO[C@H]1O[C@@]2(C)OOC13CCCC[C@@H]3C[C@@H]2COCc1ccc(F)cc1 |  |  | 7.72 | 
CO[C@H]1O[C@@]2(C)OOC13CCCC[C@@H]3C[C@@H]2CO |  |  | 6.64 | 
CO[C@H]1O[C@@]2(C)OOC13[C@H](CCOCc1ccc(F)cc1)CCC[C@@H]3C[C@@H]2C |  |  | 7.89 | 
CO[C@H]1O[C@@]2(C)OOC13[C@H](CCO)CCC[C@@H]3C[C@@H]2C |  |  | 8.11 | 
((6R,9S,12S)-12-Methoxy-9-methyl-10,11,13-trioxa-tricyclo[7.2.2.01,6]tridec-8-ylmethyl)-triphenyl-stannane |  |  |  | pIC50 (Plasmodium falciparum [3]): < 5.60
2-((2S,6R,9S,12S)-12-Methoxy-9-methyl-8-trimethylstannanylmethyl-10,11,13-trioxa-tricyclo[7.2.2.0 1,6 ]tridec-2-yl)-ethanol |  |  |  | pIC50 (Plasmodium falciparum [2]): < 5.60
Tributyl-((6R,9S,12S)-12-methoxy-9-methyl-10,11,13-trioxa-tricyclo[7.2.2.01,6]tridec-8-ylmethyl)-stannane |  |  |  | pIC50 (Plasmodium falciparum [3]): < 5.60
CO[C@H]1O[C@]2(C)CC[C@H]3CCC[C@@H](CCOCc4ccccc4)C31OO2 |  |  | 7.60 | 
CO[C@H]1O[C@@]2(C)OOC13CCCC[C@@H]3CC2Cc1ccccc1 (some centres undefined) | < 5.60 | 6.51 |  | 
CO[C@H]1O[C@@]2(C)OOC13[C@H](CCO)CCC[C@@H]3CC2Cc1ccccc1 (some centres undefined) | 5.77 | 8.08 |  | 
CO[C@H]1O[C@@]2(C)OOC13CCCC[C@@H]3CC2Cc1ccc(CO)cc1 (some centres undefined) | < 5.60 | 6.22 |  | 
CO[C@H]1O[C@@]2(C)OOC13[C@H](CCOCc1ccccc1)CCC[C@@H]3C[C@@H]2C |  |  | 7.96 | 
CO[C@H]1O[C@@]2(C)OOC13[C@H](CCO)CCC[C@@H]3CC2C[Si](C)(C)C (some centres undefined) | < 5.60 | 6.62 |  | 
CO[C@H]1O[C@@]2(C)OOC13CCCC[C@@H]3CC2Cc1ccc(COCc2ccc(F)cc2)cc1 (some centres undefined) |  |  | 6.62 | 
